This note sets out measurements from patent US8263637B2, “Methods for treatment of multiple myeloma using cyclopropane carboxylic acid {2-[(is)-1-(3-ethoxy-4-methoxy-phenyl)-2-methanesulfonyl-ethyl]-3-oxo-2,3-dihydro-1 h-isoindol-4-yl}-amide” (Celgene Corporation, priority 2002, dated 2012).

The subject of data set [1] is TNF-α production. Description: Inhibition of TNF-α production following LPS-stimulation of human PBMC and human whole blood. Type of data set: cell-based. The note with it: in vitro studies; relative to thalidomide. The source says:
In a specific embodiment, the pharmacological properties of 3-(3,4-dimethoxy-phenyl)-3-(1-oxo-1,3-dihydro-isoindol-2-yl)-propionamide are characterized in in vitro studies. Studies examine the effects of the compound on the production of various cytokines. Inhibition of TNF-α production following LPS-stimulation of human PBMC and human whole blood by the compound is investigated in vitro. […] The pharmacological effects of 3-(3,4-dimethoxy-phenyl)-3-(1-oxo-1,3-dihydro-isoindol-2-yl)-propionamide may derive from its action as an inhibitor of the generation of inflammatory cytokines.

Data set [2] in a line: Cardiovascular and respiratory function in anesthetized dogs. Format: in vivo, Beagle dogs. Here is the method: The effects of 3-(3,4-dimethoxy-phenyl)-3-(1-oxo-1,3-dihydro-isoindol-2-yl)-propionamide on cardiovascular and respiratory function are investigated in anesthetized dogs. Two groups of Beagle dogs (2/sex/group) are used. One group receives three doses of vehicle only and the other receives three ascending doses of the compound (200, 400, and 800 mg/kg). In all cases, doses of the compound or vehicle are successively administered via infusion through the jugular vein separated by intervals of at least 30 minutes.
The cardiovascular and respiratory changes induced by 3-(3,4-diethoxy-phenyl)-3-(1-oxo-1,3-dihydro-isoindol-2-yl)-propionamide are minimal at all doses when compared to the vehicle control group.

For `COc1ccc(C(CC(N)=O)N2Cc3ccccc3C2=O)cc1OC` (stereo not drawn) [3-(3,4-dimethoxy-phenyl)-3-(1-oxo-1,3-dihydro-isoindol-2-yl)-propionamide], the “pharmacological activity profile, times more potent than thalidomide” value in data set [1] was “five to fifty”. Moreover, the “cardiovascular and respiratory changes compared to the vehicle control group” value in data set [2] (all doses (200, 400, and 800 mg/kg), infusion through the jugular vein) is on record as “minimal”. Further, in data set [2] (common to both the control and treated groups), the “deviations in femoral blood flow, respiratory parameters, and Qtc interval” value is given as “not considered treatment-related”. The “arterial blood pressure effect at higher doses” value in data set [2] (higher doses) was “not seen”. Moreover, in data set [2] (low dose), the “duration of the arterial blood pressure effect” value is on record as “approximately 15 minutes”. Further, the “arterial blood pressure, difference between vehicle and treatment groups” value in data set [2] (low dose, statistically significant) was “small increase”.
